From patent US9328142B2, “Lipopeptide inhibitors of RAS oncoproteins” (The United States of America, as represented by The …, priority 2011, dated 2016)

What was measured:
[1] = system: A549 human lung cancer cell line harboring constitutively active Ras mutant; experiment: MTT growth inhibition assay, A549; type: cell-based; conditions: A549, MTT
Method: (§1) MCF-7 (breast cancer), T47D (breast cancer), Colo 205 (colon cancer), JM-1 (rat hepatoma), Sk Mel-2 (melanoma), PLC (human hepatoma), and HepG2 (human hepatoma) were obtained from American Type Cell Culture Collection. MCF-7 cells were grown in RPMI medium supplemented with 10% Fetal Bovine Serum. The remaining cell lines were grown in DMEM medium supplemented with 10% Fetal Bovine Serum. For the assay, cells were seeded into 96 well plates in medium containing 1% Fetal Bovine Serum and 100 μL of a cell suspension containing 5000 cells per well were used for each well. Cell growth was evaluated utilizing MTT ((3-(4,5-Dimethylthiazol-2-yl)-2,5-diphenyltetrazolium). The absorbance of the wells at 544 nm was determined by a FLUOstar/POLARstar Galaxy (BMG Lab Technologies GmbH) microplate reader.
(§2) The growth inhibitory activity of compounds was compared using the A549 human lung cancer cell line harboring constitutively active G12D Ras mutant with the help of an MTT assay. […] Stepwise extensions and truncations confirmed that the peptide had the optimal length (see Table 1).
(§3) The growth inhibitory activity of compounds was compared using the A549 human lung cancer cell line harboring constitutively active G12D Ras mutant with the help of an MTT assay.

[2] = system: A549 human lung cancer cell line harboring constitutively active G12D Ras mutant; experiment: MTT growth inhibition assay, A549; type: cell-based
Method: as §1, §2, §3

[3] = system: human lung tumor cell lines (A549, H460, and H1944) and a mouse astrocytoma cell line (187436 tu2) expressing mutated K-Ras; experiment: Growth inhibition in cell lines expressing mutated K-Ras (FIGS. 2 and 3); type: cell-based; conditions: A549, H460, H1944, 187436 tu2
From the text: The cell line was generated from astrocytoma developed in a transgenic mouse harboring a G12D mutation in K-Ras and inactivation of the Rb gene.

[4] = system: activated (GTP-bound) Ras in H358 human lung cancer cells; experiment: Raf-RBD pull-down of active (GTP-bound) Ras; type: cell-based; conditions: 5 μM, varying exposure times
Method: H358 human lung cancer cells were grown in 6-well plates in DMEM medium containing 10% FBS. When the cells were about 70% confluent, the medium was replaced with DMEM containing 1% FBS. Two hours later, Ras inhibitors (kR-H6-48, HR-1, kR-4A-4, or kR-4B-2) were added to provide a final concentration of 5 μM.
After varying exposure times, the cells were rinsed with PBS and lysed. The lysates were cleared by centrifugation, incubated with immobilized Raf-RBD beads (which bind Ras) and analyzed by Western blot using manufacturer's protocols (Cytoskeleton, Inc., Denver, Colo.; Catalog No. BK008). The bands corresponding to active (GTP-bound) Ras were quantified with the help of MIPAV software.

[5] = system: H358 human lung cancer cells with mutated K-Ras; experiment: H358 tumor growth in nude mice; type: in vivo
From the text: 2×10^6 H358 human lung cancer cells with mutated K-Ras were implanted subcutaneously (s.c.) in nude mice.

[6] = system: Ras protein in H2009 and H2592 cells; experiment: Western blot of Ras protein amount in cancer cells; type: cell-based; conditions: 0-3.0 μM, 18 hours
Method: A further experiment was undertaken to determine the effect of analogs of helix 6 and HVR on the amount of K-Ras protein in cancer cells. H2009 (lung adenocarcinoma cells) and H2592 (plural mesothelioma cells) were exposed to varying concentrations (0-3.0 μM) of kR-4A-3, kR-4B-3, or kR-H6-3 for 18 hours. The cells then were lysed and the lysate was analyzed by Western blot using anti-Ras mAb (Cell Biolabs, Inc.).

[7] = biological target: K-Ras in H2592 cells (Homo sapiens, UniProt P01116); conditions: GI50 concentrations, 18 hours
From the text: Goat anti-mouse antibodies with Alexa Fluor TM 594 (red) were used to visualize the anti-Ras mouse mAb.

Row | Substance | GI50 ([1]; Table 1 helix 6 derivatives) [µM] | further results
1 | Pal-YQRVQRVLTYF (all D) [kR-H6-36] | 0.01 ± 0.005 | –
2 | Ac-VEDAFYTLVREIRQYRK (e-Pal) [kR-H6-7] | 2.7 | –
3 | Ac-PGLNVKIKKK-e-Pal [kR-4A-7] | – | GI50 ([1]; Table 2 HVR derivatives): > 10 µM
4 | Lau-YQRVQRVLTYF (all D) [kR-H6-38] | 0.015 | –
5 | Pal-KVEDAFYTLVREIRQYR [kR-H6-4] | > 5 | –
6 | Ac-KKKKSKTKK-e-Pal [kR-4B-7] | – | GI50 ([1]; Table 2 HVR derivatives): 2 µM
7 | Ac-Doa-VEDAFYTLVREIRQYR [kR-H6-5] | 3.3 | –
8 | Ac-KTPGAVKIKKK-e-Pal [kR-4A-5] | – | GI50 ([1]; Table 2 HVR derivatives): 5 µM
9 | Ac-RYQRIQRVLTYFAK-e-Pal (all D) [kR-H6-30] | 0.01 ± 0.005 | additional fold reduction in GI50 ([2]; Glu162 replaced with Gln): 1.7 fold
10 | Ac-VEDAFYTLVREIRQYR [kR-H6-16] | > 5 | –
11 | Ac-YRLKKISKEEKTPGK-e-Pal [kR-4A-2] | – | GI50 ([1]; Table 2 HVR derivatives): 1.65 µM
12 | Pal-RYQRIERVLTYFADEV (all D) [kR-H6-1] | 1.35 | –
13 | Ac-RYQRIQRVLTYFK-e-Pal (all D) [kR-H6-32] | 0.01 ± 0.004 | –
14 | Ac-LRYQRIQRVLTYFAK-e-Pal (all D) [kR-H6-31] | 0.025 ± 0.01 | –
15 | Myr-YQRVQRVLTYW (all D) [kR-H6-40] | 0.02 ± 0.01 | –
16 | Pal-RYQRIQRVLTYF (all D) [kR-H6-20] | 0.25 | –
17 | Ac-TPGLNVKIKKK-e-Pal [kR-4A-6] | – | GI50 ([1]; Table 2 HVR derivatives): > 10 µM
18 | Ac-KTPGLNVKIKKK-e-Pal [kR-4A-4] | – | GI50 ([1]; Table 2 HVR derivatives): 0.7 µM; growth inhibition (cell number, percent of control) [3]: growth inhibition; GTP-bound Ras (fraction of control) [4]: reduction in activated (GTP-bound) Ras
19 | Ac-KKKSKTKK-e-Pal [kR-4B-8] | – | GI50 ([1]; Table 2 HVR derivatives): 2.3 µM; tumor weight at the time of sacrifice ([5]; 10 mg/kg s.c. every second day for 20 days, control 1.21 g): 0.35 g; tumor growth ([5]; 10 mg/kg s.c. near the tumor every second day for 20 days): abolished the growth
20 | Oct-YQRVQRVLTYF (all D) [kR-H6-50] | 0.004 ± 0.001 | –
21 | Ac-DAFYTLVREIRQYRK (e-Pal) [kR-H6-9] | 0.5 | –
22 | e-Pal-KRYQRIERVLTYFADEV (all D) [kR-H6-3] | > 5 | amount of Ras protein [6]: reduced the amount of Ras protein in lung cancer cells in a concentration-dependent manner; Ras protein levels by immunostaining [7]: reduction in protein levels; pattern of K-Ras distribution [7]: lack of characteristic punctuate pattern of K-Ras distribution
23 | Pal-e-KAFYTLVREIRQY [kR-H6-10] | 0.3 | –
24 | Pal-LRYQRIERVLTYFADEV (all D) [kR-H6-2] | 0.3 | –
25 | Ac-RYQRIERVLTYFAK-e-Pal (all D) [kR-H6-23] | 0.025 ± 0.01 | fold more toxic to cancer cells than kR-H6-6 ([2]; retroinverso version versus kR-H6-6): 10 fold; growth inhibition (cell number, percent of control) [3]: growth inhibition
26 | Lau-HQRVQRVLTYF (all D) [kR-H6-43] | 0.3 ± 0.05 | –
27 | Ac-AFYTLVREIRQYRK (e-Pal) [kR-H6-8] | 5 | –
